Experimental data as given in patent US12553892B2, “Assays for antimicrobial activity and applications thereof” (PRESIDENT AND FELLOWS OF HARVARD COLLEGE, priority 2013, dated 2026).

Legend:
E. cloacae = assay: Antibiotic treatment of E. cloacae tracked by FcMBL ELLecSA detection of MAMPs; conditions: for susceptibility of E. cloacae to the antibiotic: as stated for the test pathogen; for treatment efficacy from increase or spike in ELLecSA signal over time: 24-hr time course, E. cloacae 10e8 CFU/ml, 1 mg/ml antibiotic
[1] = system: clinical isolate of E. coli; assay: Antibiotic treatment of clinical isolate of E. coli, MAMP detection by ELLecSA; type: cell-based; conditions: FIG. 16D strain
Protocol: FIGS. 16A-16E show lysing microbes by antibiotic treatment to increase MAMPs for FcMBL-coated bead capture and ELLecSA detection. In FIG. 16A, FcMBL coated beads were used to detect the presence of MAMPs from a clinical isolate of Enterobacter cloacae after 4 hour treatments of cefepime and meropenem. Detection of MAMPs was done by ELLecSA using rhMBL-hrp. In FIG. 16B, FcMBL coated beads were used to detect the presence of MAMPs from a clinical isolate of Salmonella typhimurium after 4 hour treatments of cefepime. Detection of MAMPs was done by ELLecSA using rhMBL-hrp. In FIG. 16C, FcMBL coated beads were used to detect the presence of MAMPs from a clinical isolate of E. coli after 4 hour treatment of cefepime and amikacin. Detection of MAMPs was done by ELLecSA using rhMBL-hrp. In FIG. 16D, FcMBL coated beads were used to detect the presence of MAMPs from a clinical isolate of E. coli after 4 hour treatment of cefepime and amikacin. Detection of MAMP's was done by ELLecSA using rhMBL-hrp. […]. Time course antibiotics were administered. Optimal MAMP detection occurred at 4 hours with 100 ug/mL cefepime.

E. coli ATCC 8739 = assay: In vivo antibiotic efficacy by ELLecSA in rats infected intraperitoneally; conditions: for ELLecSA levels, increase over baseline (no antibiotic): rats, 2e9 CFU i.p., antibiotic 100 μg/kg at 4 hours, terminal blood draw 8 hours after infection; for ELLecSA signal in treated group vs sham treatment: wistar rats, treatment four hours after infection, blood draw after another four hours
[2] = system: amp-C mutant Enterobacter cloacae; assay: Time course antibiotic treatment of amp-C mutant Enterobacter cloacae, MAMP detection by ELLecSA; type: cell-based; conditions: 100 μg/mL antibiotic

CC(=O)OCC1=C(C(=O)O)N2C(=O)[C@@H](NC(=O)Cc3cccs3)[C@H]2SC1 [Cefalotin]
susceptibility of E. cloacae to the antibiotic (E. cloacae): naturally resistant

NCC[C@H](O)C(=O)N[C@@H]1C[C@H](N)[C@@H](O[C@H]2O[C@H](CN)[C@@H](O)[C@H](O)[C@H]2O)[C@H](O)[C@H]1O[C@H]1O[C@H](CO)[C@@H](O)[C@H](N)[C@H]1O [amikacin]
susceptibility of the E. coli strain [1]: sensitive

Cc1nnc(SCC2=C(C(=O)O)N3C(=O)[C@@H](NC(=O)Cn4cnnn4)[C@H]3SC2)s1 [cefazolin]
treatment efficacy from increase or spike in ELLecSA signal over time (E. cloacae): ineffective | susceptibility of E. cloacae to the antibiotic (E. cloacae): resistant

CO/N=C(\C(=O)N[C@@H]1C(=O)N2C(C(=O)[O-])=C(C[N+]3(C)CCCC3)CS[C@H]12)c1csc(N)n1 [cefepime]
ELLecSA levels, increase over baseline (no antibiotic) (E. coli ATCC 8739): six | ELLecSA signal in treated group vs sham treatment (E. coli ATCC 8739): significant increase | susceptibility of the E. coli strain [1]: intermediate susceptibility

CC(C)(O/N=C(\C(=O)N[C@@H]1C(=O)N2C(C(=O)[O-])=C(C[n+]3ccccc3)CS[C@H]12)c1csc(N)n1)C(=O)O [ceftazidime]
susceptibility of amp-C mutant E. cloacae [2]: resistant

CO/N=C(\C(=O)N[C@@H]1C(=O)N2C(C(=O)O)=C(CSc3nc(=O)c(=O)[nH]n3C)CS[C@H]12)c1csc(N)n1 [ceftriaxone]
treatment efficacy from increase or spike in ELLecSA signal over time (E. cloacae): effective | time to MAMP release after addition of the active antibiotic (E. cloacae; about 5e7 CFU Enterobacter cloacae): ≤ 30 min | susceptibility of E. cloacae to the antibiotic (E. cloacae): susceptible

C[C@@H](O)[C@H]1C(=O)N2C(C(=O)O)=C(S[C@@H]3CN[C@H](C(=O)N(C)C)C3)[C@H](C)[C@H]12 [meropenem]
ELLecSA levels, increase over baseline (no antibiotic) (E. coli ATCC 8739): 2 fold | ELLecSA signal in treated group vs sham treatment (E. coli ATCC 8739): significant increase
